Assay results as given in patent US11673876B2, “Substituted aminobenzyl heteroaryl compounds as EGFR and/or PI3K inhibitors” (Mekanistic Therapeutics LLC, priority 2020, dated 2023).

Tests used:
Type in all cases: biochemical
[1] = target: DNA-PK (Homo sapiens (Human), UniProt P78527); assay: Z'-LYTE / Adapta kinase assay, DNA-PK; conditions: read-out: DNA-PK % Inh. @ 100 nM
Description: (§1) The Z′-LYTE® biochemical assay employs a fluorescence-based, coupled-enzyme format and is based on the differential sensitivity of phosphorylated and non-phosphorylated peptides to proteolytic cleavage (FIG. 6). The peptide substrate is labeled with two fluorophores one at each end—that make up a FRET pair. In the primary reaction, the kinase transfers the gamma-phosphate of ATP to a single tyrosine, serine or threonine residue in a synthetic FRET-peptide. In the secondary reaction, a site-specific protease recognizes and cleaves non-phosphorylated FRET-peptides. Phosphorylation of FRET-peptides suppresses cleavage by the Development Reagent. Cleavage disrupts FRET between the donor (i.e., coumarin) and acceptor (i.e., fluorescein) fluorophores on the FRET-peptide, whereas uncleaved, phosphorylated FRET-peptides maintain FRET. A ratiometric method, which calculates the ratio (the Emission Ratio) of donor emission to acceptor emission after excitation of the donor fluorophore at 400 nm, is used to quantitate reaction progress.
(§2) A significant benefit of this ratiometric method for quantitating reaction progress is the elimination of well-to-well variations in FRET-peptide concentration and signal intensities. As a result, the assay yields very high Z′-factor values (>0.7) at a low percent phosphorylation.
(§3) Both cleaved and uncleaved FRET-peptides contribute to the fluorescence signals and therefore to the Emission Ratio. The extent of phosphorylation of the FRET-peptide can be calculated from the Emission Ratio.
(§4) Enzyme: The ADAPTA universal kinase assay is a homogenous, fluorescent based immunoassay for the detection of ADP. In contrast to ATP depletion assays, the ADAPTA assay is extremely sensitive to ADP formation such that a majority of the signal change occurs in the first 10-20% conversion of ATP to ADP. This makes the ADAPTA universal kinase assay ideally suited for use with low activity kinases.
(§5) The principle of the ADAPTA universal kinase assay is outlined below. The assay itself can be divided into two phases: a kinase reaction phase, and an ADP detection phase. In the kinase reaction phase, all components required for the kinase reaction are added to the well, and the reaction is allowed to incubate for 60 minutes.
(§6) Z′-LYTE® Assay Conditions:
(§7) Test Compounds: The Test Compounds are screened in 1% DMSO (final) in the well. For 10 point titrations, 3-fold serial dilutions are conducted from the starting concentration.
(§8) Peptide/Kinase Mixtures: All Peptide/Kinase Mixtures are diluted to a 2× working concentration in the appropriate Kinase Buffer.
(§9) ATP Solution: All ATP Solutions are diluted to a 4× working concentration in Kinase Buffer (50 mM HEPES pH 7.5, 0.01% BRIJ-35, 10 mM MgCl2, 1 mM EGTA). ATP Km apparent is previously determined using a Z′-LYTE® assay.
(§10) Development Reagent Solution: The Development Reagent is diluted in Development Buffer. […]
(§11) 2.5 μL—4× Test Compound or 100 nL 100× plus 2.4 μL kinase buffer. 2. 5 μL—2× Peptide/Kinase Mixture. 3. 2.5 μL—4× ATP Solution. 4. 30-second plate shake. 5. 60-minute Kinase Reaction incubation at room temperature. 6. 5 μL—Development Reagent Solution. 7. 30-second plate shake. 8. 60-minute Development Reaction incubation at room temperature. 9.

[2] = target: EGFR (Homo sapiens (Human), UniProt P00533); assay: Z'-LYTE / Adapta kinase assay, EGFR; conditions: read-out: EGFR % Inh. @ 100 nM
Sequence of EGFR (P00533 25-1210): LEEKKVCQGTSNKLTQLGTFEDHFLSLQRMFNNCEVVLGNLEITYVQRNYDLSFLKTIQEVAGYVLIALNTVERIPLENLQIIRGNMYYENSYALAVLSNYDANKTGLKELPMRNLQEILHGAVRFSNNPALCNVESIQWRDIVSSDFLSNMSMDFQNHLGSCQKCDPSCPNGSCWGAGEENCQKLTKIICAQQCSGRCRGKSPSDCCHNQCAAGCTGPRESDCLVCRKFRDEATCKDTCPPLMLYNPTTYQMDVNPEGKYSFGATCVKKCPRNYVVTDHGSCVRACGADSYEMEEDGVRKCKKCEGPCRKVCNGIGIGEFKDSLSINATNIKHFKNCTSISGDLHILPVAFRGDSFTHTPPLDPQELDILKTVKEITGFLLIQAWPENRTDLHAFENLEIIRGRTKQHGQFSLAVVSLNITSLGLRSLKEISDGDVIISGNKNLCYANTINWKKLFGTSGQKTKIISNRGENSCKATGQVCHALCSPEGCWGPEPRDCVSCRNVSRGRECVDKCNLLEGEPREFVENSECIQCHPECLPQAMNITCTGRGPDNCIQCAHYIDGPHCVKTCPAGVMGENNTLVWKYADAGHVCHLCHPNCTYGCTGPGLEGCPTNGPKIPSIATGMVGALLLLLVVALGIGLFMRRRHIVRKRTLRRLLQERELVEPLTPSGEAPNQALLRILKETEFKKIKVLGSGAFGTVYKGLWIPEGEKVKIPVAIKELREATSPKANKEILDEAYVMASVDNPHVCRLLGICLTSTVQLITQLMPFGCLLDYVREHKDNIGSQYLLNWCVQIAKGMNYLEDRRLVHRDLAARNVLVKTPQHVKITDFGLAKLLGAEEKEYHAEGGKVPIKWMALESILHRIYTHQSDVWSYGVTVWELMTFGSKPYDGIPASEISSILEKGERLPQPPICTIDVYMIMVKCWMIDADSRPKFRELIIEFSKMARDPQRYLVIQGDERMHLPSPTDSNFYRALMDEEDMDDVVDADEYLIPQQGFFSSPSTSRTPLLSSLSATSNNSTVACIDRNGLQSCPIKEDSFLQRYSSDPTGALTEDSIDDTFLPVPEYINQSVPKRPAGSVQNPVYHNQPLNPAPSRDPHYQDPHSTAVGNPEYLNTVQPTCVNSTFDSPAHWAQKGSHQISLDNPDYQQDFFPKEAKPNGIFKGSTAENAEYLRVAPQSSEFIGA
Description: as §1, §2, §3, §4, §5, §6, §7, §8, §9, §10, §11

[3] = target: PI3Ka (Homo sapiens (Human), UniProt P42336); assay: Z'-LYTE / Adapta kinase assay, PI3Ka; conditions: read-out: PI3Ka % Inh. @ 100 nM
Sequence of PI3Ka (P42336 whole entry): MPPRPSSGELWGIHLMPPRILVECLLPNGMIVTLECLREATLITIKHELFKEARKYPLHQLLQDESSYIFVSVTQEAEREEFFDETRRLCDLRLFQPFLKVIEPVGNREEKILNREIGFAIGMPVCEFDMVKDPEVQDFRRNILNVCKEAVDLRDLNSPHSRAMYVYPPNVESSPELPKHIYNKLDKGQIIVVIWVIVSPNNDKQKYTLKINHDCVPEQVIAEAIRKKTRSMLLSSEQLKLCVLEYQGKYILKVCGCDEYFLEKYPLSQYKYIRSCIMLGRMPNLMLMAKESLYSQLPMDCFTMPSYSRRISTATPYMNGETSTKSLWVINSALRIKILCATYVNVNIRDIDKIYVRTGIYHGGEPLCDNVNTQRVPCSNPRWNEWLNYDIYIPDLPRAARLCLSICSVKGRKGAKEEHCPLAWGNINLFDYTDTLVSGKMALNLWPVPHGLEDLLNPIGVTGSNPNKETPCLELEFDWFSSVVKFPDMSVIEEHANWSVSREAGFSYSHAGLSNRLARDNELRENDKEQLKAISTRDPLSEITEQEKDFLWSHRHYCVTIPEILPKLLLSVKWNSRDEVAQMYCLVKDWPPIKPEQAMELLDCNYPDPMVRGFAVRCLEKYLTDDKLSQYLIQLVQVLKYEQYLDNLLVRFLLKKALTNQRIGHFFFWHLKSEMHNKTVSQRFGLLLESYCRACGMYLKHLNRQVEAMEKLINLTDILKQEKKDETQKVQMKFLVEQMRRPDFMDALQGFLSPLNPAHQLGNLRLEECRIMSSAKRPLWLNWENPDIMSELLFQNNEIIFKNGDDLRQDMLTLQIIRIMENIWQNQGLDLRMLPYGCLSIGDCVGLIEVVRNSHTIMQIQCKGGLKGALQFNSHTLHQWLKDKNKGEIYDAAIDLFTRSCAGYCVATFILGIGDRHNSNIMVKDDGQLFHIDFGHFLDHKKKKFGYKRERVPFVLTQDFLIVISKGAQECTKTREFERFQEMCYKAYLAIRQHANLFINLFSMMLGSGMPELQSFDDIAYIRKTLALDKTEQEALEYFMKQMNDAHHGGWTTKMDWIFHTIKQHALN
Sequence of PI3Ka (P27986 whole entry partner): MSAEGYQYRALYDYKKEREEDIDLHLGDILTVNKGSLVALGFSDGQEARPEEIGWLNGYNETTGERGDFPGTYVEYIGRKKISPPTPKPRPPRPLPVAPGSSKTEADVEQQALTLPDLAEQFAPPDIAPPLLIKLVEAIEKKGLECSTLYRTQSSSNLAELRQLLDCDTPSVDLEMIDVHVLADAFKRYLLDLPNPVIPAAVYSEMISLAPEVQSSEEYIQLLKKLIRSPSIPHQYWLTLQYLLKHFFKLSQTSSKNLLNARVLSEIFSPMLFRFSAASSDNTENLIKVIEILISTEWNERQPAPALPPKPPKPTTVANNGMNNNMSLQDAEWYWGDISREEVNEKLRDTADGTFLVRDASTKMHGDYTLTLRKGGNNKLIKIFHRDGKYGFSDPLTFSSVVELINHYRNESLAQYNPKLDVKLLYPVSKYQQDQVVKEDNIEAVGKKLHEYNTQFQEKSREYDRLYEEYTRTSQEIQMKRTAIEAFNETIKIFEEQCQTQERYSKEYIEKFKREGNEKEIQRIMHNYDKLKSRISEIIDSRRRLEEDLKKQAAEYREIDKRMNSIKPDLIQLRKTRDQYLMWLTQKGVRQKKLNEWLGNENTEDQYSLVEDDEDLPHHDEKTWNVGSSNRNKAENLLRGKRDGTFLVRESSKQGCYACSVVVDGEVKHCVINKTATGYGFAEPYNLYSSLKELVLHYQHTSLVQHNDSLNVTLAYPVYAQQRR
Description: as §1, §2, §3, §4, §5, §6, §7, §8, §9, §10, §11

| inhibition at 0.1 µM [1] [%] | inhibition at 0.1 µM [2] [%] | inhibition at 0.1 µM [3] [%] | SMILES |
| --- | --- | --- | --- |
| 10 to 80 | 10 to 80 | 10 to 80 | CC(Nc1ncnc2ccc(-c3cnc(N)c(C(=O)N(C)C)c3)cc12)c1ccccc1 (centres unmarked) [Compound 36, 2-amino-N, N-dimethyl-5-[4-(1-phenylethylamino)quinazolin-6-yl] pyridine-3-carboxamide] |
| 10 to 80 | 10 to 80 | 10 to 80 | CC(Nc1c(C#N)cnc2ccc(-c3cncc(C(C)(C)O)c3)cc12)c1ccccc1 (centres unmarked) [Compound 67, 6-[5-(1-hydroxy-1-methyl-ethyl)-3-pyridyl]-4-(1-phenylethylamino) quinoline-3-carbonitrile] |
| < 10 | 10 to 80 | < 10 | COc1ncc(-c2ccc3ncnc(N[C@H](C)c4ccccc4)c3c2)cc1C#N [Compound 132, 2-methoxy-5-[4-[[(1R)-1-phenylethyl]amino]quinazolin-6-yl]pyridine-3-carbonitrile] |
| < 10 | < 10 | < 10 | C[C@@H](Nc1ncnc2ccc(-c3cncc(C(=O)NC#N)c3)cc12)c1ccccc1 [Compound 133, (R)-N-cyano-5-(4-((1-phenylethyl)amino)quinazolin-6-yl)nicotinamide] |
| < 10 | > 90 | < 10 | COC(=O)c1cncc(-c2ccc3ncnc(N[C@H](C)c4ccccc4)c3c2)c1 [Compound 135, methyl 5-[4-[[(1R)-1-phenylethyl]amino]quinazolin-6-yl]pyridine-3-carboxylate] |
| 10 to 80 | > 90 | 10 to 80 | CC(Nc1ncnc2ccc(-c3cnc4[nH]nnc4c3)cc12)c1ccccc1 (centres unmarked) [Compound 24, N-(1-phenylethyl)-6-(3H-triazolo[4,5-b]pyridin-6-yl)quinazolin-4-amine] |
| < 10 | > 90 | < 10 | CC(Nc1c(C#N)cnc2ccc(-c3n[nH]c4ccncc34)cc12)c1ccccc1 (centres unmarked) [Compound 124, 4-(1-phenylethylamino)-6-(1H-pyrazolo [4,3-c]pyridin-3-yl) quinoline-3-carbonitrile] |
| < 10 | 10 to 80 | < 10 | OCC(Nc1ncnc2ccc(-c3cnc4cnccn34)cc12)c1ccccc1 (centres unmarked) [Compound 140, 2-[(6-imidazo[1,2-a]pyrazin-3-ylquinazolin-4-yl)amino]-2-phenyl-ethanol] |
| 10 to 80 | 10 to 80 | < 10 | CC(Nc1ncnc2ccc(-c3cnc4cnn(C)c4c3)cc12)c1ccccc1 (centres unmarked) [Compound 27, 6-(1-methylpyrazolo[4,3-b]pyridin-6-yl)-N-(1-phenylethyl)quinazolin-4-amine] |
| < 10 | > 90 | 10 to 80 | CC(Nc1ncnc2ccc(-c3ccc4oc(N)nc4c3)cc12)c1ccccc1 (centres unmarked) [Compound 41, 5-[4-(1-phenylethylamino)quinazolin-6-yl]-1,3-benzoxazol-2-amine] |
| 10 to 80 | 80 to 90 | 10 to 80 | CC(Nc1c(C#N)cnc2ccc(-c3cnc4[nH]nnc4c3)cc12)c1ccccc1 (centres unmarked) [Compound 70, 4-(1-phenylethylamino)-6-(3H-triazolo [4,5-b]pyridin-6-yl) quinoline-3-carbonitrile] |
| 10 to 80 | 10 to 80 | < 10 | CC(Nc1c(C#N)cnc2ccc(-c3cnc4[nH]ccc4c3)cc12)c1ccccc1 (centres unmarked) [Compound 55, 4-(1-phenylethylamino)-6-(1H-pyrrolo [2,3-b]pyridin-5-yl) quinoline-3-carbonitrile] |
| 10 to 80 | 80 to 90 | 10 to 80 | CC(Nc1ncnc2ccc(-c3cncc(C(C)(C)O)c3)cc12)c1ccccc1 (centres unmarked) [Compound 21, 2-[5-[4-(1-phenylethylamino)quinazolin-6-yl]-3-pyridyl]propan-2-ol] |
| < 10 | 10 to 80 | < 10 | CC(Nc1c(C#N)cnc2ccc(-c3cnc4ccccc4c3)cc12)c1ccccc1 (centres unmarked) [Compound 122, 4-(1-phenylethylamino)-6-(3-quinolyl)quinoline-3-carbonitrile] |
| 10 to 80 | 80 to 90 | 10 to 80 | CC(Nc1c(C#N)cnc2ccc(-c3cnc(N)c(C#N)c3)cc12)c1ccccc1 (centres unmarked) [Compound 65, 6-(6-amino-5-cyano-3-pyridyl)-4-(1-phenylethylamino) quinoline-3-carbonitrile] |
| 10 to 80 | 80 to 90 | 10 to 80 | C[C@@H](Nc1c(C#N)cnc2ccc(-c3cnc4[nH]ncc4c3)cc12)c1ccccc1 [Compound 54R, 4-[[(1R)-1-phenylethyl]amino]-6-(1H-pyrazolo [3,4-b]pyridin-5-yl) quinoline-3-carbonitrile] |
| 10 to 80 | > 90 | < 10 | CC(Nc1c(C#N)cnc2ccc(-c3cccnc3)cc12)c1ccccc1 (centres unmarked) [Compound 123, 4-(1-phenylethylamino)-6-(3-pyridyl) quinoline-3-carbonitrile] |
| < 10 | 10 to 80 | 10 to 80 | CC(Nc1ncnc2ccc(-c3cnc4cnccn34)cc12)c1ccccc1 (centres unmarked) [Compound 139, 6-imidazo[1,2-a]pyrazin-3-yl-N-(1-phenylethyl)quinazolin-4-amine] |
| 80 to 90 | > 90 | > 90 | CC(Nc1ncnc2ccc(-c3cnc4cncn4c3)cc12)c1ccccc1 (centres unmarked) [Compound 34, 6-(imidazo[1,5-a]pyrimidin-3-yl)-N-(1-phenylethyl)quinazolin-4-amine] |
| > 90 | > 90 | 80 to 90 | CC(Nc1ncnc2ccc(-c3cnc(N)c(S(C)(=O)=O)c3)cc12)c1ccccc1 (centres unmarked) [Compound 31, 6-(6-amino-5-(methylsulfonyl)pyridin-3-yl)-N-(1-phenylethyl)quinazolin-4-amine] |
| 10 to 80 | 10 to 80 | 10 to 80 | CC(Nc1c(C#N)cnc2ccc(-c3cncc(C#N)c3)cc12)c1ccccc1 (centres unmarked) [Compound 64, 6-(5-cyano-3-pyridyl)-4-(1-phenylethylamino) quinoline-3-carbonitrile] |
| 10 to 80 | 80 to 90 | 10 to 80 | Cc1nc2cc(-c3ccc4ncnc(NC(C)c5ccccc5)c4c3)cnc2[nH]1 (centres unmarked) [Compound 10, 6-(2-methyl-1H-imidazo[4,5-b]pyridin-6-yl)-N-(1-phenylethyl)quinazolin-4-amine] |
| < 10 | 10 to 80 | 10 to 80 | COc1ncc(-c2ccc3ncc(C#N)c(NC(C)c4ccccc4)c3c2)cc1C#N (centres unmarked) [Compound 126, 6-(5-cyano-6-methoxy-3-pyridyl)-4-(1-phenylethylamino) quinoline-3-carbonitrile] |

| SMILES | inhibition at 0.1 µM [1] [%] | inhibition at 0.1 µM [2] [%] | inhibition at 0.1 µM [3] [%] |
| --- | --- | --- | --- |
| CS(=O)(=O)Nc1cc(-c2ccc3ncc(C#N)c(NC4c5ccccc5CC4O)c3c2)cnc1Cl (centres unmarked) [Compound 103, N-[2-chloro-5-[3-cyano-4-[(2-hydroxyindan-1-yl)amino]-6-quinolyl]-3-pyridyl]methanesulfonamide] | > 90 | < 10 |  |
